Data reported in patent publication US11779015B2, “Pesticide compositions” (FUNDACIÓ CENTRE DE REGULACIÓ GENÒMICA, priority 2017, dated 2023).

Columns and labels:
D. biarmipes = experiment: Airborne toxicity petri dish assay, adult flies (FIG. 1A); type: in vivo; settings: 10% vol
Text: (§1) In particular, adult flies 2 were exposed to compositions 4 comprising one or more of a selection of VOCs according to the invention or a comparative example, in a petri dish 6. The compositions 4 were loaded onto the lid 6a of the petri dish 6 and the flies were placed into the base 6b of the dish, which was then covered by a sheet of plastic mesh netting 8 to avoid direct contact of the flies 2 with the compositions 4, before replacing the lid 6a. The onset of paralysis/loss of locomotion control, ultimately resulting in death of the flies 2, was monitored over a period of 1 hour or until all flies 2 were dead, determined when fly wings were vertical (similar to the protocol described in Legal et al. 1992 and 1994).
(§2) Adult flies of Drosophila species were exposed to a 10% vol solution of (E)-2-hexenal and 10% vol solution of methyl benzoate, in an experimental set up as explained in relation to FIG. 1A. For each VOC, species of the suzukii complex (D. suzukii, D. biarmipes), melanogaster complex (D. melanogaster, D. simulans, D. sechellia), and erecta+yakuba complex (D. erecta, D. yakuba, D. santomea) of the melanogaster species group were compared. 5-10 mixed female and male adults were used per trial. FIGS. 4A and B show the results of these experiments, respectively for (E)-2-hexenal (FIG. 4A) and methyl benzoate (FIG. 4B). The data shown represents the average±SEM of the proportion of dead flies as a function of time, over 3 to 6 assays per condition.

D. erecta = experiment: as above; type: in vivo; settings: 10% vol
Text: as §1, §2

D. sechellia = experiment: as above; type: in vivo; settings: 10% vol
Text: as §1, §2

D. simulans = experiment: as above; type: in vivo; settings: 10% vol
Text: as §1, §2

D. yakuba = experiment: as above; type: in vivo; settings: 10% vol
Text: as §1, §2

[1] = system: honeybees (Apis mellifera); experiment: Airborne toxicity on honeybees in the petri dish assay; type: in vivo; settings: adult bees exposed for one hour; for toxicity to honey bees: 10% vol
Description: The toxicity of (E)-2-hexenal and methyl benzoate volatiles was tested at 100% (pure) and 10% vol. concentrations on honeybees (Apis mellifera) in the petri dish assay of FIG. 1A. Adult bees were exposed for one hour and the proportion of death across all trials (5 trials with each of the pure VOCs and 10 trials for each of the 10% vol VOC assays) was calculated. The results of these experiments are shown on FIG. 8.
Honeybee foragers were obtained from a large bee keeping company (Agroquímica Ollé, http://agroquimicaolle.com). Bees were held in an incubator at 22 degrees for a few days and provided with ad libitum sugar water.

D. suzukii = experiment: Positional and ovipositional preference on food substrate plated with compound; type: in vivo, Drosophila suzukii; settings: for positional preference/avoidance of adult flies: food plated with compound vs blank, monitored over 5 hours
Description: Adult flies 200 are placed in a plastic box 600 with mesh-netting 800 in the lid to allow aeration. Two food sources 400a and 400b (for example petri dishes containing molasses-apple juice agar substrates) are placed into the box 600, of which one 600a is plated with a compound to be tested, and the other 600b is left blank as a control.
Using this experimental set up and pure (E)-2-hexenal or methyl benzoate, the positional preference of the flies was monitored over 5 hours. The ovipositional preference was measured after 24 hours by counting the number of eggs laid on either plate. […] The same experimental set up was used to test for positional and ovipositional preference using different concentrations of (E)-2-hexenal, i.e. 1.2% vol, 3.4% vol, 11.6% vol and 34% vol. The results of these assays are shown on FIG. 7C. All data shown represents the mean+S.E.M. over 2 to 6 trials per condition. In FIG. 7C, deviations marked by a star are associated with a unpaired t-test p-value below 0.05 following a one-way ANOVA test with F(4,22)=3.987 (p=0.017).
Petri dishes (∅ 6 cm) filled with 10 ml of a molasses-apple juice-agar medium acted as food substrate. These were plated with methyl benzoate or (E)-2-hexenal. Two Petri dishes were placed inside a plastic box (32×22×12 cm) with a mesh netting in the lid. One dish was plated with a thin layer of pure odour (1.8 μl (E)-2-hexenal or 0.9 μl methyl benzoate when used pure, or 50 μl of (E)-2-hexenal when used in diluted solutions), and the other was left blank as a control. More (E)-2-hexenal was used because its vapour pressure is 4 times lower than that of methyl benzoate and, thus, is prone to dissipate faster. 20 mixed sex adult flies were placed inside the plastic box and monitored every 0.5 hours, over a period of 5 hours, to assess their positional preference by counting the number of flies positioned on either plate. After 24 hours, their ovipositional preference was monitored by counting the number of eggs laid on either dish. Flies were cooled on ice for handling and discarded after each trial.

D. suzukii larvae = experiment: Fly larva chemotaxis assay; type: in vivo, Drosophila suzukii; settings: 1% vol in paraffin oil, 5 minutes
Description: Larvae were exposed to 1% vol solution of (E)-2-hexenal or methyl benzoate in paraffin oil loaded onto the lid of a petri dish. Their movement was tracked for 5 minutes. A preference index was quantified as the fraction of time larvae spent in a zone around the odour sources. A population of 15 larvae were used per trial and they were placed in the centre of the petri dish at the start of the experiment. The average distance of the larvae to the odour sources was also quantified over time. The results of this analysis are shown on FIG. 9, for each of the conditions where a VOC of the invention was used. A total of 10 trials were performed for each condition, i.e. for each VOC and fly species, and 30 trials were performed for a control condition, for which only the solvent paraffin oil was applied.
Behavioural experiments were performed with third instar foraging larvae. A group of approximately 15 larvae per trial was placed in a Petri dish and monitored during 5 minutes for their chemotactic behaviour, as larvae were exposed to an odour gradient in gas phase emanating from the two odour sources on the lid of the Petri dish. […] Larval behaviour was tracked using a video camera and the data derived was then analysed in Matlab (MathWorks) using custom-made programs to calculate additional time-series variables, and to determine the preference index and the distance of larvae to the source.

[2] = system: adult flies of D. suzukii; experiment: Contact toxicity, adult flies sprayed in a bugdorm; type: in vivo, Drosophila suzukii; settings: for Proportion of dead flies (%): sprayed; for concentration inducing mortality by contact (as low as): sprayed adult D. suzukii
Description: Contact toxicity of E-2-hexenal and methyl benzoate volatiles was tested at different concentrations and in combination with thickeners in different concentration that make E-2-hexenal and methyl benzoate stick to the flies. […] Flies (10-15 mixed males/females) were placed into a bugdorm and sprayed from a distance of 10 cm. Mortality was evaluated after 24 hrs, except for the condition indicated with a star in Table 3, where an exposure time of 50 minutes was used. Thickeners were diluted in aqueous emulsions of deionised water containing 1% vol. Tween 20.

[3] = 0.1% compound + 1% Arabic Gom, 24 hrs
[4] = 0.1% compound + 1% hydroxyethylcellulose, 24 hrs
[5] = 0.1% compound, mortality after 24 hrs
[6] = 1% compound + 1% Arabic Gom, 24 hrs
[7] = 1% compound + 1% hydroxyethylcellulose, 24 hrs
[8] = 5% compound, mortality after 24 hrs
[9] = *1% compound, exposure time of 50 minutes

SMILES | T50 (D. biarmipes) [min] | T50 (D. erecta) [min] | T50 (D. sechellia) [min] | T50 (D. simulans) [min] | T50 (D. yakuba) [min] | toxicity to honey bees [1] | positional preference/avoidance of adult flies (D. suzukii) | ovipositional preference (egg-laying) (D. suzukii; food plated with pure compound vs blank, eggs counted after 24 hours) | larval chemotactic response (D. suzukii larvae) | Proportion of dead flies (%) [2, 3] [%] | Proportion of dead flies (%) [2, 4] [%] | Proportion of dead flies (%) [2, 5] [%] | Proportion of dead flies (%) [2, 6] [%] | Proportion of dead flies (%) [2, 7] [%] | Proportion of dead flies (%) [2, 8] [%] | Proportion of dead flies (%) [2, 9] [%] | concentration inducing mortality by contact (as low as) [2] [%] | toxicity to honey bees (rate) ([1]; 100% (pure) compound) | concentration from which flies avoid laying their eggs on the plated side (D. suzukii; tested 1.2, 3.4, 11.6 and 34% vol, eggs counted after 24 hours) [% vol]
COC(=O)c1ccccc1 [methyl benzoate, Methyl benzoate] | 9.6 | 13.8 | 34 | 9.4 | 11 | low levels of toxicity | stronger avoidance response | strong egg-laying deterrent | strongly repulsive | 30 | 10 | 33 | 30 | 70 | 100 | 30 | 0.1 | – | –
CCC/C=C/C=O [(E)-2-hexenal] | 15.4 | 5.3 | 22.7 | 9 | 8.7 | low levels of toxicity | relatively weak | – | attractive chemotactic responses | 80 | 80 | 31 | 10 | 50 | 100 | 50 | 0.1 | significantly faster rate than pure methyl benzoate | ≥ 3.4
